Experimental data taken from US20230090439A1, “PHARMACEUTICAL COMPOSITION FOR CONTROLLING PARASITES ON NON-HUMAN ORGANISMS” (priority 2020, published 2023).
Blank lines part the entries; values can stand above or below the compound they belong to.

Assay: Solubility experiments (saturation solubility in solvents, HPLC-UV of supernatant)
Type: physicochemical
Details: for Solubility in the solvent mixture of the composition according to the invention (in words): isopropanol/propylene carbonate 65:35, room temperature
Text: Dissolution experiments for active ingredients I-1, I-2, I-3 and I-4 in solvents for a pharmaceutical composition according to the invention are presented below. For biological effect, the active ingredient should be incorporated at a certain dose or amount in the formulation, in the ideal case it should be a solution in the formulation such that the active ingredient is therefore dissolved in the solvent. A certain minimum solubility is required for the solvent since the application volume is limited.
In this case, 10 g of the appropriate solvent or solvent mixture were initially charged and as much active ingredient was added until the solution is saturated. Isopropanol (IPA) and propylene carbonate (PPC) were used as solvents. The samples were stirred for 3 days. Should the active ingredient become fully dissolved, active ingredient was again added. Subsequently, the samples were stored for a further 4 days at the relevant temperature and centrifuged in order to remove the undissolved particles. The supernatants were analyzed in each case for active ingredient content by HPLC-UV.
Furthermore, solubility experiments with three further active ingredients from the class of fluorinated heteroarylamides in different solvents were carried out. The solubility experiments were carried out analogously to the experiments described above, however only at room temperature and the solvent mixture isopropanol/propylene carbonate 65:35% [m/m] was selected.
Experiments with solvent systems were also carried out in which the first solvent comprised two alcohols.

[1] = Isopropanol, room temperature (Table 2)
[2] = Isopropanol/propylene carbonate 65/35, room temperature (Table 2)
[3] = Propylene carbonate, room temperature (Table 2)

Saturation solubility (Ethanol (Table 3)): 2.76 % [ w/w]
Saturation solubility (Ethanol/glycerol carbonate 65:35 (Table 3)): 6.48 % [ w/w]
Saturation solubility (Ethanol/propylene carbonate 65:35 (Table 3)): 9.45 % [ w/w]
Solubility (Ethanol/propylene carbonate/glycerol carbonate 65:17.5:17.5): >5 % [w/w]
Saturation solubility (Glycerol carbonate (Table 3)): 0.15 % [ w/w]
Saturation concentration of the solution (IPA/PPC 25/75 23° C.): 7.58 %[w/w]
Saturation concentration of the solution (IPA/PPC 35/65 23° C.): 8.79 %[w/w]
Saturation concentration of the solution (IPA/PPC 50/50 23° C.): 9.26 %[w/w]
Saturation concentration of the solution (IPA/PPC 60/40 23° C.): 8.60 %[w/w]
Saturation concentration of the solution (IPA/PPC 65/35 5° C.): 6.32 %[w/w]
Saturation concentration of the solution (IPA/PPC 65/35 23° C.): 8.31 %[w/w]
Saturation concentration of the solution (IPA/PPC 70/30 23° C.): 7.49 %[w/w]
Saturation concentration of the solution (IPA/PPC 75/25 23° C.): 6.70 %[w/w]
Saturation concentration of the solution (IPA/PPC 80/20 23° C.): 5.90 %[w/w]
Saturation concentration of the solution (IPA/PPC 90/10 23° C.): 3.74 %[w/w]
Saturation concentration of the solution (Isopropanol 5° C.): 0.98 %[w/w]
Saturation concentration of the solution (Isopropanol 23° C.): 1.56 %[w/w]
Saturation solubility (Isopropanol (Table 3)): 1.56 % [ w/w]
Solubility (Isopropanol/ethanol/glycerol carbonate 32.5:32.5:35): >5 % [w/w]
Solubility (Isopropanol/ethanol/propylene carbonate 32.5:32.5:35): >5 % [w/w]
Saturation solubility (Isopropanol/glycerol carbonate 65:35 (Table 3)): 5.98 % [ w/w]
Solubility (Isopropanol/propylene carbonate/glycerol carbonate 65:17.5:17.5): >5 % [w/w]
Saturation concentration of the solution (Propylene carbonate 5° C.): 1.80 %[w/w]
Saturation concentration of the solution (Propylene carbonate 23° C.): 2.43 %[w/w]
Saturation solubility (Propylene carbonate (Table 3)): 2.43 % [ w/w]
Solubility in the mixture of isopropanol and propylene carbonate compared to the pure solvents (in words) (mixture of isopropanol and propylene carbonate vs pure solvents): significant solubility increase
Solubility in the solvent systems of Table 4 (in words) (three-component alcohol/carbonate solvent systems of Table 4): good solubilities
Structure (SMILES): CN(C(=O)c1cc(-c2cnn(-c3c(Cl)cc(C(F)(C(F)(F)F)C(F)(F)F)cc3Cl)c2)cnc1Cl)C1CC1 [I-1, 2-chloro-N-cyclopropyl-5-[1-[2,6-dichloro-4-[1,2,2,2-tetrafluoro-1-(trifluoromethyl)-ethyl]phenyl]pyrazol-4-yl]-N-methylpyridine-3-carboxamide]

Saturation solubility [1]: 6.99 % [w/w]
Saturation solubility [2]: 24.20 % [w/w]
Saturation solubility [3]: 5.34 % [w/w]
Solubility in the solvent mixture of the composition according to the invention (in words): very good solubilities
Structure (SMILES): O=C(NC1CC1)c1cc(-c2cnn(-c3c(Cl)cc(C(F)(C(F)(F)F)C(F)(F)F)cc3OC(F)(F)F)c2)cnc1Cl [I-2]

Saturation solubility [1]: 4.18 % [w/w]
Saturation solubility [2]: 17.57 % [w/w]
Saturation solubility [3]: 4.89 % [w/w]
Solubility in the solvent mixture of the composition according to the invention (in words): very good solubilities
Structure (SMILES): O=C(NC1CC1)c1cc(-c2cnn(-c3c(Cl)cc(C(F)(C(F)(F)F)C(F)(F)F)cc3C(F)(F)F)c2)cnc1Cl [I-3, 2-chloro-5-[1-[2-chloro-4-[1,2,2,2-tetrafluoro-1-(trifluoromethyl)ethyl]-6-(trifluoromethyl)phenyl]-1H-pyrazol-4-yl]-N-cyclopropyl-3-pyridinecarboxamide]

Saturation solubility [1]: 13.42 % [w/w]
Saturation solubility [2]: 29.38 % [w/w]
Saturation solubility [3]: 11.76 % [w/w]
Solubility in the solvent mixture of the composition according to the invention (in words): very good solubilities
Structure (SMILES): O=C(NC1CC1)c1cc(-c2cnn(-c3c(Br)cc(C(F)(C(F)(F)F)C(F)(F)F)cc3OC(F)(F)F)c2)cnc1Cl [I-4]
